Measurements: patent US20110081410A1, “THERAPEUTIC AGENT FOR LOCAL INFLAMMATION” (ST. MARIANNA UNIVERSITY, SCHOOL OFMEDICINE, priority 2005, published 2011)

Tested on: Synovial cells from OA patients
Settings: retinoic acid 0.05%, 6 hours after addition, colloidal iron staining
Procedure: Synovial cells from OA patients were cultured, and the retinoic acid nanocapsule containing calcium carbonate as an ingredient of the capsule produced in Example 1, and retinoic acid (atRA) were added thereto. Six hours after the addition, colloidal iron staining was performed to confirm the status of hyaluronic acid production. The evaluation groups were: DMSO as control, atRA, and the retinoic acid nanocapsule. The concentration of added retinoic acid was set 0.05% in both groups of atRA and retinoic acid nanocapsule.

For `CC1=C(/C=C/C(C)=C/C=C/C(C)=C/C(=O)O)C(C)(C)CCC1` [atRA, All-trans retinoic acid], the Hyaluronic acid production was “confirmed”.
